In general, LD50 refers to the dose expected to kill half of the subjects tested.

Where two headings read alike, the source gives them in different places.

The test system of data set [1] is lacZ promoter. The format is cell-based, E. coli.
In data set [2] the test system is Fiu promoter. The format is cell-based, E. coli.
In data set [3] the test system is GrpE promoter. The format is cell-based, E. coli.
Data set [4] deals with E. coli luxCDABE promoter fusion library. The data set is classed as cell-based.
The test system of data set [5] is GrpE promoter. The data set is classed as cell-based, E. coli. This is another data set of the same source.
The subject of data set [6] is Fiu promoter. The data set is classed as cell-based, E. coli. The source holds these as a separate data set.
Data set [7] concerns MipA promoter. The data set is classed as cell-based, E. coli.
The test system of data set [8] is LacAYZ promoter. The data set is classed as cell-based, E. coli.
Data set [9] concerns MipA promoter. The data set is classed as cell-based, E. coli. This is another data set of the same source.
In data set [10] the test system is (AP-1-STRE)*2. The data set is classed as cell-based, Saccharomyces cerevisiae.
Data set [11] has as its system STRE. The format is cell-based, Saccharomyces cerevisiae.
For data set [12] the following is noted: rat, in vivo, po; cited from earlier work.
In data set [13] the test system is otsAB promoter. The data set is classed as cell-based, E. coli.
Data set [14] has as its system yciD promoter. The format is cell-based, E. coli.
Data set [15] concerns nhoA promoter. The data set is classed as cell-based, E. coli.

As for `Oc1cc(Cl)c(Cl)cc1Cl` [2,4,5-Trichlorophenol], in data set [1], the Cmax is 31 mg/L, the EC200 was determined as 0.8 mg/L, the RRmax was determined as 16.1 and the t200 turned out to be 95 min. Moreover, in data set [1], the “tmax (first value, time to reach RRmax)” value is reported as 120/120 min; the “tmax (second value, time to reach ΔLmax)” value was 120/120 min; the ΔLmax was 74,832 RLU. In data set [2], this compound came in with a Cmax of 31 mg/L, an EC200 of 1.2 mg/L, an RRmax of 11.7 and a t200 of 39 min. Moreover, in data set [2], the “tmax (first value, time to reach RRmax)” value is 30/120 min; the “tmax (second value, time to reach ΔLmax)” value is 30/120 min; the ΔLmax is recorded as 33,697 RLU. In data set [3], this compound showed a Cmax of 31 mg/L, an EC200 of 1.0 mg/L, an RRmax of 22.1 and a t200 of 21 min. In addition, in data set [3], the “tmax (first value, time to reach RRmax)” value is given as 90/90 min; the “tmax (second value, time to reach ΔLmax)” value is 90/90 min; the ΔLmax was 54,432 RLU.
In data set [2], `Oc1c(Cl)cccc1Cl` [2,6-Dichlorophenol] came in with a Cmax of 125 mg/L, an EC200 of 16.0 mg/L, an RRmax of 4.4 and a t200 of 31 min. Also, in data set [2], the “tmax (first value, time to reach RRmax)” value is listed as 30/120 min; the “tmax (second value, time to reach ΔLmax)” value was 30/120 min; the ΔLmax is listed as 25,553 RLU. In data set [3], this compound registered a Cmax of 31 mg/L, an EC200 of 1.2 mg/L, an RRmax of 19.5 and a t200 of 29 min. In data set [3], the “tmax (first value, time to reach RRmax)” value is reported as 90/90 min; the “tmax (second value, time to reach ΔLmax)” value was 90/90 min; the ΔLmax is on record as 47,877 RLU.
In data set [2], `Oc1ccccc1Cl` [2-Chlorophenol] showed a Cmax of 500 mg/L, an EC200 of 3.4 mg/L, an RRmax of 5.8 and a t200 of 80 min. Further, in data set [2], the “tmax (first value, time to reach RRmax)” value is reported as 90/120 min; the “tmax (second value, time to reach ΔLmax)” value was 90/120 min; the ΔLmax is listed as 11,971 RLU. In data set [3], this compound showed a Cmax of 250 mg/L, an EC200 of 2.8 mg/L, an RRmax of 18.7 and a t200 of 32 min. Also, in data set [3], the “tmax (first value, time to reach RRmax)” value was 90/90 min; the “tmax (second value, time to reach ΔLmax)” value is recorded as 90/90 min; the ΔLmax is given as 33,345 RLU.
As to `COc1cc2c(c(OC)c1OC)-c1ccc(OC)c(=O)cc1[C@@H](NC(C)=O)CC2` [Colchicine], in [2], the Cmax amounted to 45 mg/L, the EC200 is given as 14.3 mg/L, the RRmax came to 4.0 and the t200 is recorded as 85 min. Further, in data set [2], the “tmax (first value, time to reach RRmax)” value was 120/120 min; the “tmax (second value, time to reach ΔLmax)” value is on record as 120/120 min; the ΔLmax is recorded as 1,924 RLU.
Consider `COP(=O)(OC)OC=C(Cl)Cl` [DDVP, Dichlorvos], for which, in data set [4], the “share of library promoters with 0 < RRmax < 2” value (from here on “share … with 0 < RRmax < 2”) worked out at 91.7%, the “share of library promoters with 2 < RRmax < 3” value (“share … with 2 < RRmax < 3” for short) was 5.7%, the “share of library promoters with 3 < RRmax < 5” value (“share … with 3 < RRmax < 5” for short) is reported as 2.0% and the “share of library promoters with 5 < RRmax < 10” value (“share … with 5 < RRmax < 10” for short) is listed as 0.4%. The Cmax in data set [5] is 125 mg/L. In [6], this compound had a Cmax of 500 mg/L and an RRmax of 5. Besides, in [3], the Cmax came out at 125 mg/L; the EC200 was 32.5 mg/L; the t200 came out at 41 min; the “tmax (first value, time to reach RRmax)” value was 132/132 min. Besides, in [3], the “tmax (second value, time to reach ΔLmax)” value is recorded as 132/132 min and the ΔLmax is recorded as 5,290 RLU.
Consider `CCOP(=S)(OCC)Oc1ccc([N+](=O)[O-])cc1` [Ethyl Parathion], for which, in data set [4], the “share … with 0 < RRmax < 2” value stood at 89.6%, the “share … with 2 < RRmax < 3” value is on record as 6.3%, the “share … with 3 < RRmax < 5” value was 2.1% and the “share … with 5 < RRmax < 10” value is recorded as 1.7%. This compound showed a Cmax in data set [7] of 500 mg/L. Further, in data set [8], the Cmax was determined as 500 mg/L and the RRmax is listed as 8. Further, in data set [1], the Cmax was 125 mg/L, the EC200 was 13.0 mg/L, the RRmax is recorded as 4.7 and the t200 stood at 120 min. In data set [1], the “tmax (first value, time to reach RRmax)” value is reported as 132/132 min; the “tmax (second value, time to reach ΔLmax)” value was 132/132 min; the ΔLmax is 47,776 RLU. Besides, in data set [9], the Cmax came to 500 mg/L; the EC200 is reported as 79.0 mg/L; the t200 came to 60 min; the “tmax (first value, time to reach RRmax)” value is 87/110 min. Moreover, in data set [9], the “tmax (second value, time to reach ΔLmax)” value was 87/110 min and the ΔLmax is recorded as 196,600 RLU. Also, in data set [10], the fold higher response is given as 4-5 fold and the “time within which a response can be seen” value fell in the range of 5 to 10 min. Besides, in [11], the fold higher response was 4-5 fold and the “time within which a response can be seen” value was 5 to 10 min. The LD50 in data set [12] is on record as 2 mg/kg.
With `CNC(=S)[S-].[Na+]` [Metham Sodium], in [1], the Cmax worked out at 180 mg/L, the EC200 is 20.0 mg/L, the RRmax is given as 6.5 and the t200 was 90 min. For the same compound, in data set [1], the “tmax (first value, time to reach RRmax)” value was 120/120 min; the “tmax (second value, time to reach ΔLmax)” value is reported as 120/120 min; the ΔLmax is 30,468 RLU. In addition, in data set [9], the Cmax came out at 180 mg/L, the EC200 is listed as 18.0 mg/L, the RRmax came out at 5.9 and the t200 is on record as 100 min. For the same compound, in [9], the “tmax (first value, time to reach RRmax)” value is 120/120 min; the “tmax (second value, time to reach ΔLmax)” value is 120/120 min; the ΔLmax is listed as 27,745 RLU.
With `CNC(=O)ON=C(C)SC` [Methomyl], in [4], the “response of the library promoters to the toxicant (in words)” value (from here on “response of the library promoters”) is listed as “very poor responses”, the “share … with 0 < RRmax < 2” value is 90.1%, the “share … with 2 < RRmax < 3” value was 7.1% and the “share … with 3 < RRmax < 5” value came out at 2.0%. In addition, in data set [4], the “share … with 5 < RRmax < 10” value is reported as 0.7% and the “share of library promoters with 10 < RRmax” value was 0.1%. In [13], this compound showed a Cmax of 2000 mg/L and an RRmax of 3. In addition, in data set [14], the Cmax was 2000 mg/L and the RRmax was found to be 2. Besides, in [12], the 50% lethal dose (LD50) is 17 mg/kg.
In the case of `C[n+]1ccc(-c2cc[n+](C)cc2)cc1` [Paraquat], in data set [4], the “response of the library promoters” value is on record as “strongest inducer”, the “share … with 0 < RRmax < 2” value was found to be 71.1%, the “share … with 2 < RRmax < 3” value was 13.7% and the “share … with 3 < RRmax < 5” value is 7.5%. Moreover, in [4], the “share … with 5 < RRmax < 10” value was found to be 3.7% and the “share of library promoters with 10 < RRmax” value came to 4%. Also, in data set [8], the Cmax was 500 mg/L and the RRmax is on record as 28. In [15], the EC200 is listed as 0.43 mg/L; the t200 was 21 min; the “tmax (first value, time to reach RRmax)” value is on record as 96/110 min; the “tmax (second value, time to reach ΔLmax)” value was 96/110 min. Moreover, in [15], the ΔLmax is on record as 146,342 RLU. In [1], this compound yielded a Cmax of 32.5 mg/L, an EC200 of 9.0 mg/L, an RRmax of 13.0 and a t200 of 85 min. Besides, in data set [1], the “tmax (first value, time to reach RRmax)” value is recorded as 123/132 min; the “tmax (second value, time to reach ΔLmax)” value is 123/132 min; the ΔLmax is reported as 253,421 RLU. Besides, in data set [2], the Cmax was 250 mg/L, the EC200 turned out to be 9.8 mg/L, the RRmax is 16.9 and the t200 is given as 42 min. In data set [2], the “tmax (first value, time to reach RRmax)” value is 120/60 min; the “tmax (second value, time to reach ΔLmax)” value is 120/60 min; the ΔLmax was 29,591 RLU. In addition, the LD50 in [12] is 150 mg/kg.
`COC(=O)C=C(C)OP(=O)(OC)OC` [Phosdrin]: in [1], the Cmax was 180 mg/L, the EC200 stood at 38.3 mg/L, the RRmax was 3.7 and the t200 is 110 min. Also, in [1], the “tmax (first value, time to reach RRmax)” value was 120/120 min; the “tmax (second value, time to reach ΔLmax)” value is 120/120 min; the ΔLmax is recorded as 12,900 RLU.
As for Botulinum Toxin A, in [4], the “response of the library promoters” value was “did not produce any response” and the “share … with 0 < RRmax < 2” value was 100%.

The values are drawn from patent US20080044844A1 (priority 2004, published 2008).
